Tests used:
Human Topo II = molecular target: T1, Human Topo II (Homo sapiens, UniProt P11388); assay: Human Topoisomerase II DNA decatenation assay; format: biochemical
T1 construct: purchased TopoGen, USA
Method: The decatenation assay was conducted using a Human Topo II decatenation kit (TopoGen, USA). […] Assays were performed according to the manufacturer’s protocol. Briefly, on ice, 19 µL of master mixture was prepared by adding 4 µL of freshly prepared 5 x assay buffer (0.5 M Tris-HCl pH8.0, 1.50 M NaCl, 100 mM MgCl2, 5 mM Dithiothreitol, 300 µg/mL BSA, 20 mM ATP), 1 µL of 200 ng/µL kDNA and 5 µL of serial diluted assay compounds in 200 µL reaction tubes. 1 µL of fresh diluted topoisomerase II (1U) was then added to each reaction tube. The total reaction volume was adjusted to 20 µL with H2O. These reactions were incubated at 37 °C for 30 min and stopped by addition of 4 µL of 5 x Stop Buffer (TopoGen, USA). Samples were loaded directly onto a 1% (w/v) agarose gel containing 0.5 µg/ml ethidium bromide and separated at 140 v for 1 hour in 0.5% TBE buffer. The intensity of released (decatenated) circular rings was quantified using Analytik Jena image software. All values were normalized to the negative control wells. The intensity of decatenated band was used in the determination of IC50 of tested compounds and the curve was drawn in Prism 9 (9.0.0). All experiments were performed in triplicate (n = 3).

Human Topoisomerase I = molecular target: T2, Human Topoisomerase I (Homo sapiens, UniProt P11387); assay: Human Topoisomerase I DNA relaxation assay; format: biochemical
T2 construct: purchased Inspiralis, UK
T2 sequence (P11387 1-765): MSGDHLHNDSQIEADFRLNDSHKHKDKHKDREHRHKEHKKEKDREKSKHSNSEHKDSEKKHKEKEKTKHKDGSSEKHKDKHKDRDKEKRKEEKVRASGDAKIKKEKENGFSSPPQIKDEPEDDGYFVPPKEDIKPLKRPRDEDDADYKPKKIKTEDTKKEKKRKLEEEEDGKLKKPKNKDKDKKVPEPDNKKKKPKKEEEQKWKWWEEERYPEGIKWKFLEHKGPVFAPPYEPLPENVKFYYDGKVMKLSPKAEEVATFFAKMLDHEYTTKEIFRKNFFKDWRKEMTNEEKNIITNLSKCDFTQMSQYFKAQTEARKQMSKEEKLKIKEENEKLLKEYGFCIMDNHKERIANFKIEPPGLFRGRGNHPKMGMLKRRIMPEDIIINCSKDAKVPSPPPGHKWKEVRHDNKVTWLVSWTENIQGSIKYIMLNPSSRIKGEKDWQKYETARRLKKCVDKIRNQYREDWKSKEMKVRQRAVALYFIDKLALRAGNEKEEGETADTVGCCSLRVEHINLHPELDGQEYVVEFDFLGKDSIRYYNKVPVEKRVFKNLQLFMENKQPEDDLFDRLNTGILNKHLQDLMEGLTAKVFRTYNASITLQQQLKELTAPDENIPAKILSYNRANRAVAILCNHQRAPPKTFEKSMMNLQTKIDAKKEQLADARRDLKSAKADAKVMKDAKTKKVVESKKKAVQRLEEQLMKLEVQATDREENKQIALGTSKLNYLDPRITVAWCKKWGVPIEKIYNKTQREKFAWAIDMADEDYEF
Method: All values were normalized to the negative control wells. […] All experiments were performed in triplicate (n = 3).

E. coli gyrase = molecular target: T3, E. coli gyrase (Escherichia coli, UniProt P0AES4+P0AES6); assay: DNA gyrase supercoiling assay; format: biochemical
T3 construct: purchased TopoGen, USA
T3 sequence (P0AES4 whole entry, one chain of several): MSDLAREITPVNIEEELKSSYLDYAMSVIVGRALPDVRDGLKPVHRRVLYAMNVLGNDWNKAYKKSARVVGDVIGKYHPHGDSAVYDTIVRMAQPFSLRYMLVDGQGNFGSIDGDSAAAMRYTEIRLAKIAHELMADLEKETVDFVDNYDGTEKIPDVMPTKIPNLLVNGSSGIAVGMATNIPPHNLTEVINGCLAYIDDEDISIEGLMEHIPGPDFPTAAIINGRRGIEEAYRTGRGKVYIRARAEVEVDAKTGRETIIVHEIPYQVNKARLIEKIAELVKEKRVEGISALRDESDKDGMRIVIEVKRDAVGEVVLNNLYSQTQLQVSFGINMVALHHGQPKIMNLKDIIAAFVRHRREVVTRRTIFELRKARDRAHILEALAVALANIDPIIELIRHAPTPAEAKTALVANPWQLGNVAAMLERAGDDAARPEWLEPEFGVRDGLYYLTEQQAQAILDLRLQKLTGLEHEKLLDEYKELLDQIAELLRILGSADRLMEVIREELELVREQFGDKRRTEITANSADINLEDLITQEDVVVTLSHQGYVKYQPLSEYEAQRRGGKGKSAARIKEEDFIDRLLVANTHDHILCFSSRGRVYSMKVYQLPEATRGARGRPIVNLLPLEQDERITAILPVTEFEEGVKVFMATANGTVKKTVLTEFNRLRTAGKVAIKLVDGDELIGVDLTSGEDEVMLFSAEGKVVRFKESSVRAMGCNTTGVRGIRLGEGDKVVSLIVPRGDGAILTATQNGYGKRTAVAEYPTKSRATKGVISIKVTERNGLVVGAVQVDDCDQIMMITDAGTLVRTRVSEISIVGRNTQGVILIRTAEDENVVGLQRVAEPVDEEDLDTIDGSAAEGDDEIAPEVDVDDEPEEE
Method: The DNA gyrase supercoiling assay was conducted with an E. coli gyrase supercoiling kit (TopoGen, USA) in this assay. Ciprofloxacin (Sigma, USA) was used as the positive control. Assay was performed according to the manufacture’s protocol. […] The final volume of the reaction was adjusted to 19 µL with H2O. Finally, 1 µL of fresh diluted E. coli gyrase (1U) was added into the reaction mixture and incubated at 37 °C for 60 min. The reaction was terminated by addition of 2 µL of 10% SDS and 2 µL of 50 µg/mL proteinase K followed by a 30 min at 37 °C. The reaction was then extracted with 20 µL of chloroform/isoamyl alcohol (v:v, 24:1). The aqueous material loaded a on 1% (w/v) agarose gel and separated at 140 v for 1 hour in 0.5% TBE buffer. The gel was visualized using ethidium bromide staining. The intensity of SC plasmid bands was quantified using Analytik Jena image software. The intensity of SC bands was used in the determination of IC50 of tested compounds and the curve were drawn in Prism 9 (9.0.0). The assay was performed in triplicate (n = 3).

[1] = test system: human topoisomerase II alpha; assay: Topoisomerase II DNA cleavage assay; format: biochemical; settings: supercoil pBR322, ATP, 30 min, 37 °C; linear DNA; two independent times
Method: Topoisomerase I/II cleavage assay: A commercial Human topoisomerase cleavage assay kit (Inspiralis, UK) was used in this study with a slight modification. Camptothecin (Sigma, USA) and Etoposide (Sigma, USA) were used as the positive control for topoisomerase I cleavage assay and topoisomerase II cleavage assay, respectively. The assay was performed according to the manufacture’s protocol. Briefly, 29 µL of the master mixture was prepared by adding 3 µL of 10 x assay buffer, 1 µL of 1 µg/µL supercoil pBR322, 1 µL of 30 mM ATP (only used in topoisomerase II cleavage assay), 1.5 µL serial diluted compounds (dissolved in DMSO) and H2O. Finally, 1 µL of 10 U/µL human topoisomerase I/II alpha was added to the reaction mixture. The reaction was incubated for 30 minutes at 37℃. After incubation, 3 µL of 2% (w/v) SDS and 1.5 µL of 10 mg/mL proteinase K was added. The reaction was mixed briefly and incubated for another 30 minutes at 37 ℃. The reaction was stopped by added 10 µL of H2O, 40 µL of STEB stop buffer and 40 µL of Chloroform/isoamyl alcohol (v:v, 24:1). The mixture was vortexed vigorously for 10 secs and centrifuged for 2 minutes. 20 µL of aqueous phase was loaded onto 1% (w/v) agarose gel and separated at 80 V for 2 hours in 0.5% TBE buffer. […]

[2] = test system: Escherichia coli ATCC25922; assay: MIC assay, Escherichia coli; format: cell-based; settings: LB, 16 h, 37 °C, n = 2
Method: Lapcin was tested for antimicrobial activity against the bacteria and fungi shown in Supplementary Table 4. […] Lapcin was dissolved in sterile DMSO to make a 3.2 mg/mL working solution. Lapcin was diluted across 96-well plates using a 2-fold serial dilution method to give a concentration range of 64 to 0.06 µg/mL in 50 µL of LB broth. A single colony of each test organism was grown in either 5 mL LB (bacteria) or YPD (fungi) medium overnight at 37 °C or 30 °C, respectively. Saturated overnight cultures were diluted 5,000-fold, and then 50 µL of dilute cells were transferred into each well of the assay plates. Finally, each well contains a total volume of 100 µL.

T1 sequence (P11388 whole entry): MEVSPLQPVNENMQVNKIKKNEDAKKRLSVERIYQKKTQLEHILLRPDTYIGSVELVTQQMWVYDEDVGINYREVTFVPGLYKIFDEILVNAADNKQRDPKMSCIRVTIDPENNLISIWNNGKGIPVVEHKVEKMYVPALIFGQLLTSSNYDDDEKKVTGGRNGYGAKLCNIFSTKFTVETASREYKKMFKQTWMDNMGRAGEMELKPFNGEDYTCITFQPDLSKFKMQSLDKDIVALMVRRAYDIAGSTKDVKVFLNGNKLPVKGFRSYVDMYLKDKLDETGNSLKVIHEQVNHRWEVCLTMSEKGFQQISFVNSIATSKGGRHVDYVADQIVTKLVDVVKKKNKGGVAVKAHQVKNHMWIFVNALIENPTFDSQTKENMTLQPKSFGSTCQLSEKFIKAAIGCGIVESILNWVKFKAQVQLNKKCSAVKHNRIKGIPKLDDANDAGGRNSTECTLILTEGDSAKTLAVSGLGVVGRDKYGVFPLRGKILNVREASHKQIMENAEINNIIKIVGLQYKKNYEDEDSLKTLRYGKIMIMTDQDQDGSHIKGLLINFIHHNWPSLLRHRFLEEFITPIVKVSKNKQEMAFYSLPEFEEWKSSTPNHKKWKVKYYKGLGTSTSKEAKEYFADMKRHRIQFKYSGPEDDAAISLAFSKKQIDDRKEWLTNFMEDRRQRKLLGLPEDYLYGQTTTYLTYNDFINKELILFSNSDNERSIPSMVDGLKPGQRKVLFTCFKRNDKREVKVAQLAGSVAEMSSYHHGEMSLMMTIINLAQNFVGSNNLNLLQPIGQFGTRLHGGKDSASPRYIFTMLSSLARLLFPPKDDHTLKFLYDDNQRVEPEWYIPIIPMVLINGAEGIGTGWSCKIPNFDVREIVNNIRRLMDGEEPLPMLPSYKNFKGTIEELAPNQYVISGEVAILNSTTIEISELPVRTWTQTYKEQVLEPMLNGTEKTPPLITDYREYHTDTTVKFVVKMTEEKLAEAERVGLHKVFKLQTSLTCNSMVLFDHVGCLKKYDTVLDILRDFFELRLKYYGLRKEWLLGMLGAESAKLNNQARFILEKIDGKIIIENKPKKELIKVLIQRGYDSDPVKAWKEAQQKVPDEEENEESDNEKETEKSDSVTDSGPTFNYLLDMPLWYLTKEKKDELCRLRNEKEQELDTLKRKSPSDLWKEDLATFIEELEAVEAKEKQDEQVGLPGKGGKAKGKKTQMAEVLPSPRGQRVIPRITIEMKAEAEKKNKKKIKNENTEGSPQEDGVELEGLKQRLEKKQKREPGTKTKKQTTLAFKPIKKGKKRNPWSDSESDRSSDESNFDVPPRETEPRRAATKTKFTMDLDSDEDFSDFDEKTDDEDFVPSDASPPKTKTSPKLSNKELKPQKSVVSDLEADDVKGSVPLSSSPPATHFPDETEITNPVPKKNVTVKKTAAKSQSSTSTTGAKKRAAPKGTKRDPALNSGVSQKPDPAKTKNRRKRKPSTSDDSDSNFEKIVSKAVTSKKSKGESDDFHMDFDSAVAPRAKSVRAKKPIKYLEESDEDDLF

CCCCCCCCCCCC(O)CC(=O)N[C@@H](C)C(=O)N[C@@H](CO)C(=O)N[C@@H](C)C(=O)Nc1ccc(-c2nc(-c3nc(C(=O)N[C@@H](CC(N)=O)C(=O)Nc4ccc(C(=O)Nc5ccc(C(=O)Nc6ccc(C(=O)O)cc6)c(O)c5OC(C)C)cc4)cs3)cs2)cc1 (stereo partly drawn) [Lapcin, 4-(4-(4-((2S)-4-amino-2-(2'-(4-((2S)-2-((2S)-3-hydroxy-2-((2S)-2-(3-hydroxytetradecanamido)propanamido)propanamido)propanamido)phenyl)-[2,4'-bithiazole]-4-carboxamido)-4-oxobutanamido)benzamido)-2-hydroxy-3-isopropoxybenzamido)benzoic acid]
fold more potent than etoposide, topoisomerase II (Human Topo II): ~15 times
IC50 (Human Topo II; kDNA, 1 U enzyme, 30 min, 37 °C, gel, ethidium bromide, n = 3): 7.53 µM
fold more potent than camptothecin, topoisomerase I (Human Topoisomerase I): 14 times
IC50 (Human Topoisomerase I; supercoiled pBR322, 30 min, 37 °C, gel, ethidium bromide, n = 3): 2.17 µM
IC50 (E. coli gyrase): > 20.5 µM
accumulation of cleavage product, Topo II [1]: did not observe the accumulation of a cleavage product
MIC, Escherichia coli [2]: > 32 µg/mL
